According to patent publication US20240293351A1, “METHODS OF ADMINISTERING SYNTHETIC TRITERPENOIDS” (REATA PHARMACEUTICALS HOLDINGS, LLC, priority 2020, published 2024):

Assays:
[1] = Open label dose-ranging study 402-C-0902 in type 2 diabetic patients with stage 3b-4 CKD; type: in vivo, human; design: ΔSBP, change from baseline / ΔDBP, change from baseline: unit not given beside the values
[2] = BEAM (402-C-0804) phase 2b study, crystalline formulation; type: in vivo, human; conditions: N = 57
[3] = 2.5 mg once daily 85 days, CKD Stage 3b/4, N = 14
[4] = 2.5 mg once daily 85 days, CKD Stage 3b, N = 10
[5] = 2.5 mg once daily 85 days, CKD Stage 4, N = 4
[6] = 5 mg once daily 85 days, CKD Stage 3b/4, N = 24
[7] = 5 mg once daily 85 days, CKD Stage 3b, N = 19
[8] = 5 mg once daily 85 days, CKD Stage 4, N = 5
[9] = 10 mg once daily 85 days, CKD Stage 3b/4, N = 24
[10] = 10 mg once daily 85 days, CKD Stage 3b, N = 20
[11] = 10 mg once daily 85 days, CKD Stage 4, N = 4
[12] = 15 mg once daily 85 days, CKD Stage 3b/4, N = 48
[13] = 15 mg once daily 85 days, CKD Stage 3b, N = 26
[14] = 15 mg once daily 85 days, CKD Stage 4, N = 22
[15] = 30 mg once daily 85 days, CKD Stage 3b/4, N = 12
[16] = 30 mg once daily 85 days, CKD Stage 3b, N = 3
[17] = 30 mg once daily 85 days, CKD Stage 4, N = 9

COC(=O)[C@]12CCC(C)(C)C[C@H]1[C@H]1C(=O)C=C3[C@@]4(C)C=C(C#N)C(=O)C(C)(C)[C@@H]4CC[C@@]3(C)[C@]1(C)CC2 [Bardoxolone methyl, methyl-2-cyano-3,12-dioxooleana-1,9-dien-28-oic acid]
ΔDBP, change from baseline [1, 3]: 0.2 ± 1.8 | ΔSBP, change from baseline [1, 3]: 0.1 ± 4.2 | ΔDBP, change from baseline [1, 4]: 1 ± 2 | ΔSBP, change from baseline [1, 4]: 0 ± 4.4 | ΔDBP, change from baseline [1, 5]: −1.5 ± 3.9 | ΔSBP, change from baseline [1, 5]: 0.3 ± 11 | ΔDBP, change from baseline [1, 6]: −1.4 ± 1.5 | ΔSBP, change from baseline [1, 6]: −1.5 ± 2.3 | ΔDBP, change from baseline [1, 7]: −1.3 ± 1.4 | ΔSBP, change from baseline [1, 7]: −2.1 ± 2 ^ | ΔDBP, change from baseline [1, 8]: −1.4 ± 5.6 | ΔSBP, change from baseline [1, 8]: 0.5 ± 9.1 | ΔDBP, change from baseline [1, 9]: 0.3 ± 1.3 | ΔSBP, change from baseline [1, 9]: −2.4 ± 3.1 | ΔDBP, change from baseline [1, 10]: −0.3 ± 1.3 | ΔSBP, change from baseline [1, 10]: −4.2 ± 3.4 | ΔDBP, change from baseline [1, 11]: 3.6 ± 4.5 | ΔSBP, change from baseline [1, 11]: 6.1 ± 6.7 | ΔDBP, change from baseline [1, 12]: −1 ± 1.2 | ΔSBP, change from baseline [1, 12]: 1.1 ± 2.3 | ΔDBP, change from baseline [1, 13]: −1.3 ± 1.5 | ΔSBP, change from baseline [1, 13]: −2.2 ± 3.3 | ΔDBP, change from baseline [1, 14]: −0.6 ± 1.9 | ΔSBP, change from baseline [1, 14]: 5 ± 2.8 | ΔDBP, change from baseline [1, 15]: 3.2 ± 2.2 | ΔSBP, change from baseline [1, 15]: 7.2 ± 6.2 | ΔDBP, change from baseline [1, 16]: −1.8 ± 3.9 | ΔSBP, change from baseline [1, 16]: −0.4 ± 13.8 | ΔDBP, change from baseline [1, 17]: 4.7 ± 2.5 | ΔSBP, change from baseline [1, 17]: 9.7 ± 7.3 | Blood pressure changes ([1]; 2.5 to 30 mg, 85 consecutive days, amorphous dispersion formulation): no dose-related trend in blood pressure changes or change at any individual dose level was noted | AE, SOC Card: Cardiac failure congestive, patients n (%) ([1]; SDD 2.5 mg QD 85 days, N = 14): 0 | AE, SOC Card: Oedema peripheral, patients n (%) ([1]; SDD 2.5 mg QD 85 days, N = 14): 0 | AE, SOC Genrl: Oedema peripheral, patients n (%) ([1]; SDD 2.5 mg QD 85 days, N = 14): 0 | AE, SOC Metab: Oedema peripheral, patients n (%) ([1]; SDD 2.5 mg QD 85 days, N = 14): 0 | AE, SOC Resp: Dyspnoea exertional, patients n (%) ([1]; SDD 2.5 mg QD 85 days, N = 14): 1 (7) | AE, SOC Resp: Dyspnoea, patients n (%) ([1]; SDD 2.5 mg QD 85 days, N = 14): 0 | SAE, SOC Card: Cardiac failure congestive, patients n (%) ([1]; SDD 2.5 mg QD 85 days, N = 14): 0 | AE, SOC Card: Cardiac failure congestive, patients n (%) ([1]; SDD 5 mg QD 85 days, N = 25): 0 | AE, SOC Card: Oedema peripheral, patients n (%) ([1]; SDD 5 mg QD 85 days, N = 25): 0 | AE, SOC Genrl: Oedema peripheral, patients n (%) ([1]; SDD 5 mg QD 85 days, N = 25): 3 (12) | AE, SOC Metab: Oedema peripheral, patients n (%) ([1]; SDD 5 mg QD 85 days, N = 25): 0 | AE, SOC Resp: Dyspnoea exertional, patients n (%) ([1]; SDD 5 mg QD 85 days, N = 25): 0 | AE, SOC Resp: Dyspnoea, patients n (%) ([1]; SDD 5 mg QD 85 days, N = 25): 0 | SAE, SOC Card: Cardiac failure congestive, patients n (%) ([1]; SDD 5 mg QD 85 days, N = 25): 0 | AE, SOC Card: Cardiac failure congestive, patients n (%) ([1]; SDD 10 mg QD 85 days, N = 28): 1 (4) | AE, SOC Card: Oedema peripheral, patients n (%) ([1]; SDD 10 mg QD 85 days, N = 28): 1 (4) | AE, SOC Genrl: Oedema peripheral, patients n (%) ([1]; SDD 10 mg QD 85 days, N = 28): 5 (18) | AE, SOC Metab: Oedema peripheral, patients n (%) ([1]; SDD 10 mg QD 85 days, N = 28): 0 | AE, SOC Resp: Dyspnoea exertional, patients n (%) ([1]; SDD 10 mg QD 85 days, N = 28): 0 | AE, SOC Resp: Dyspnoea, patients n (%) ([1]; SDD 10 mg QD 85 days, N = 28): 0 | SAE, SOC Card: Cardiac failure congestive, patients n (%) ([1]; SDD 10 mg QD 85 days, N = 28): 1 (4) | AE, SOC Card: Cardiac failure congestive, patients n (%) ([1]; SDD 15 mg QD 85 days, N = 50): 0 | AE, SOC Card: Oedema peripheral, patients n (%) ([1]; SDD 15 mg QD 85 days, N = 50): 1 (2) | AE, SOC Genrl: Oedema peripheral, patients n (%) ([1]; SDD 15 mg QD 85 days, N = 50): 3 (6) | AE, SOC Metab: Oedema peripheral, patients n (%) ([1]; SDD 15 mg QD 85 days, N = 50): 0 | AE, SOC Resp: Dyspnoea exertional, patients n (%) ([1]; SDD 15 mg QD 85 days, N = 50): 0 | AE, SOC Resp: Dyspnoea, patients n (%) ([1]; SDD 15 mg QD 85 days, N = 50): 0 | SAE, SOC Card: Cardiac failure congestive, patients n (%) ([1]; SDD 15 mg QD 85 days, N = 50): 0 | AE, SOC Card: Cardiac failure congestive, patients n (%) ([1]; SDD 30 mg QD 85 days, N = 14): 1 (7) | AE, SOC Card: Oedema peripheral, patients n (%) ([1]; SDD 30 mg QD 85 days, N = 14): 0 | AE, SOC Genrl: Oedema peripheral, patients n (%) ([1]; SDD 30 mg QD 85 days, N = 14): 3 (21) | AE, SOC Metab: Oedema peripheral, patients n (%) ([1]; SDD 30 mg QD 85 days, N = 14): 1 (7) | AE, SOC Resp: Dyspnoea exertional, patients n (%) ([1]; SDD 30 mg QD 85 days, N = 14): 0 | AE, SOC Resp: Dyspnoea, patients n (%) ([1]; SDD 30 mg QD 85 days, N = 14): 1 (7) | SAE, SOC Card: Cardiac failure congestive, patients n (%) ([1]; SDD 30 mg QD 85 days, N = 14): 1 (7) | AE, SOC Card: Cardiac failure congestive, patients n (%) ([2]; Crystalline 25 mg QD 52 weeks): 2 (4) | AE, SOC Card: Dyspnoea paroxysmal nocturnal, patients n (%) ([2]; Crystalline 25 mg QD 52 weeks): 0 | AE, SOC Card: Oedema peripheral, patients n (%) ([2]; Crystalline 25 mg QD 52 weeks): 4 (7) | AE, SOC Genrl: Generalised oedema, patients n (%) ([2]; Crystalline 25 mg QD 52 weeks): 2 (4) | AE, SOC Genrl: Oedema peripheral, patients n (%) ([2]; Crystalline 25 mg QD 52 weeks): 11 (19) | AE, SOC Inv: Ejection fraction decreased, patients n (%) ([2]; Crystalline 25 mg QD 52 weeks): 1 (2) | AE, SOC Metab: Fluid overload, patients n (%) ([2]; Crystalline 25 mg QD 52 weeks): 3 (5) | AE, SOC Metab: Oedema peripheral, patients n (%) ([2]; Crystalline 25 mg QD 52 weeks): 3 (5) | AE, SOC Resp: Dyspnoea exertional, patients n (%) ([2]; Crystalline 25 mg QD 52 weeks): 1 (2) | AE, SOC Resp: Dyspnoea, patients n (%) ([2]; Crystalline 25 mg QD 52 weeks): 2 (4) | AE, SOC Resp: Orthopnoea, patients n (%) ([2]; Crystalline 25 mg QD 52 weeks): 0 | AE, SOC Resp: Pulmonary oedema, patients n (%) ([2]; Crystalline 25 mg QD 52 weeks): 0 | SAE, SOC Card: Cardiac failure congestive, patients n (%) ([2]; Crystalline 25 mg QD 52 weeks): 2 (4) | SAE, SOC Genrl: Oedema peripheral, patients n (%) ([2]; Crystalline 25 mg QD 52 weeks): 0 | SAE, SOC Metab: Fluid overload, patients n (%) ([2]; Crystalline 25 mg QD 52 weeks): 1 (2) | SAE, SOC Resp: Dyspnoea, patients n (%) ([2]; Crystalline 25 mg QD 52 weeks): 0 | SAE, SOC Resp: Pulmonary oedema, patients n (%) ([2]; Crystalline 25 mg QD 52 weeks): 0 | AE, SOC Card: Cardiac failure congestive, patients n (%) ([2]; Crystalline 75 mg QD 52 weeks): 3 (5) | AE, SOC Card: Dyspnoea paroxysmal nocturnal, patients n (%) ([2]; Crystalline 75 mg QD 52 weeks): 1 (2)
